In ChEMBL document CHEMBL1201862, “PubChem BioAssay data set” (2004):
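Each compound was tested at five concentrations against cells in 96-well plates for 48 hours. The concentration for 50% growth inhibition is given as GI50.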 Calls of active or inactive are those of the source. Cut-off read from the data, not from the text of the source: active = GI50 up to about 1.1 µM and inactive = higher.

Experiments:
Experiment in all cases: inhibition of tumour cell growth, NCI panel, 48 h
786-0 = test system: 786-0
A498 = test system: A498
A549 = test system: A549
ACHN = test system: ACHN
BT-549 = test system: BT-549
CAKI-1 = test system: CAKI-1
CCRF-CEM = test system: CCRF-CEM
COLO 205 = test system: COLO 205
DU-145 = test system: DU-145
EKVX = test system: EKVX
HCC 2998 = test system: HCC 2998
HCT-116 = test system: HCT-116
HCT-15 = test system: HCT-15
HL-60 = test system: HL-60
HOP-62 = test system: HOP-62
HOP-92 = test system: HOP-92
HT-29 = test system: HT-29
Hs-578T = test system: Hs-578T
IGROV-1 = test system: IGROV-1
K562 = test system: K562
LOX IMVI = test system: LOX IMVI
M14 = test system: M14
MCF7 = test system: MCF7
MDA-MB-231 = test system: MDA-MB-231
MDA-MB-435 = test system: MDA-MB-435
MDA-N = test system: MDA-N
MOLT-4 = test system: MOLT-4
Malme-3M = test system: Malme-3M
NCI-H226 = test system: NCI-H226
NCI-H23 = test system: NCI-H23
NCI-H460 = test system: NCI-H460
NCI-H522 = test system: NCI-H522
NCI/ADR-RES = test system: NCI/ADR-RES
OVCAR-3 = test system: OVCAR-3
OVCAR-4 = test system: OVCAR-4
OVCAR-5 = test system: OVCAR-5
OVCAR-8 = test system: OVCAR-8
RPMI-8226 = test system: RPMI-8226
RXF 393 = test system: RXF 393
SF-268 = test system: SF-268
SF-295 = test system: SF-295
SF-539 = test system: SF-539
SK-MEL-28 = test system: SK-MEL-28
SK-MEL-2 = test system: SK-MEL-2
SK-MEL-5 = test system: SK-MEL-5
SK-OV-3 = test system: SK-OV-3
SN12C = test system: SN12C
SNB-19 = test system: SNB-19
SNB-75 = test system: SNB-75
SR = test system: SR
SW-620 = test system: SW-620
T47D = test system: T47D
TK-10 = test system: TK-10
U-251 = test system: U-251
UACC-257 = test system: UACC-257
UACC-62 = test system: UACC-62
UO-31 = test system: UO-31

SMILES: COc1ccc(OC)c(-c2cc(=O)c3c(OC)c(OC)c(OC)c(OC)c3o2)c1
- GI50 (786-0): 27.4 µM (inactive)
- GI50 (A498): 36.1 µM (inactive)
- GI50 (A549): 28.5 µM (inactive)
- GI50 (ACHN): 20.7 µM (inactive)
- GI50 (BT-549): 33.2 µM (inactive)
- GI50 (CAKI-1): 40.6 µM (inactive)
- GI50 (CCRF-CEM): 13.4 µM (inactive)
- GI50 (COLO 205): 17.1 µM (inactive)
- GI50 (DU-145): 25.8 µM (inactive)
- GI50 (EKVX): 33 µM (inactive)
- GI50 (HCC 2998): 28.6 µM (inactive)
- GI50 (HCT-116): 27.6 µM (inactive)
- GI50 (HCT-15): 21.3 µM
- GI50 (HL-60): 14.2 µM (inactive)
- GI50 (HOP-62): 27.6 µM (inactive)
- GI50 (HOP-92): 11.7 µM (inactive)
- GI50 (HT-29): 33.6 µM (inactive)
- GI50 (Hs-578T): 37.6 µM (inactive)
- GI50 (IGROV-1): 29.9 µM (inactive)
- GI50 (K562): 22.2 µM (inactive)
- GI50 (LOX IMVI): 25.6 µM (inactive)
- GI50 (M14): 36.1 µM (inactive)
- GI50 (MCF7): 14.5 µM (inactive)
- GI50 (MDA-MB-231): 40.2 µM (inactive)
- GI50 (MDA-MB-435): 28 µM (inactive)
- GI50 (MDA-N): 35.9 µM (inactive)
- GI50 (MOLT-4): 9.44 µM (inactive)
- GI50 (Malme-3M): 24.3 µM (inactive)
- GI50 (NCI-H226): 26.2 µM (inactive)
- GI50 (NCI-H23): 30.1 µM (inactive)
- GI50 (NCI-H460): 25.4 µM (inactive)
- GI50 (NCI-H522): 20 µM (inactive)
- GI50 (NCI/ADR-RES): 22.8 µM (inactive)
- GI50 (OVCAR-3): 23 µM (inactive)
- GI50 (OVCAR-4): 20 µM (inactive)
- GI50 (OVCAR-5): 49.1 µM (inactive)
- GI50 (OVCAR-8): 25.7 µM (inactive)
- GI50 (RPMI-8226): 21.5 µM (inactive)
- GI50 (RXF 393): 22 µM (inactive)
- GI50 (SF-268): 36 µM (inactive)
- GI50 (SF-295): 18.7 µM (inactive)
- GI50 (SF-539): 41.1 µM (inactive)
- GI50 (SK-MEL-28): 40.1 µM (inactive)
- GI50 (SK-MEL-2): 20 µM (inactive)
- GI50 (SK-MEL-5): 12.4 µM (inactive)
- GI50 (SK-OV-3): 22.8 µM (inactive)
- GI50 (SN12C): 27.9 µM (inactive)
- GI50 (SNB-19): 34.4 µM (inactive)
- GI50 (SNB-75): 46.8 µM (inactive)
- GI50 (SR): 6.17 µM (inactive)
- GI50 (SW-620): 33 µM (inactive)
- GI50 (T47D): 2.13 µM (inactive)
- GI50 (TK-10): 37.9 µM (inactive)
- GI50 (U-251): 28.4 µM (inactive)
- GI50 (UACC-257): 36.2 µM (inactive)
- GI50 (UACC-62): 24.3 µM (inactive)
- GI50 (UO-31): 15.4 µM (inactive)
